Measurements taken from patent US20260041620A1, “NOVEL AMINO ACID BASED SALTS, COMPOSITIONS AND METHODS FOR TREATING SKIN AND IMPROVING SKIN REJUVENATION AND LONGEVITY” (Sytheon Ltd, priority 2023, published 2026).
Where two headings read alike, the source gives them in different places.

How the values were obtained:
MAGL = molecular target: T1, MAGL (Homo sapiens, UniProt Q99685); experiment: MAGL inhibitory assay; format: biochemical
T1 construct: purchased Cayman 10007812
T1 sequence (Q99685 1-303): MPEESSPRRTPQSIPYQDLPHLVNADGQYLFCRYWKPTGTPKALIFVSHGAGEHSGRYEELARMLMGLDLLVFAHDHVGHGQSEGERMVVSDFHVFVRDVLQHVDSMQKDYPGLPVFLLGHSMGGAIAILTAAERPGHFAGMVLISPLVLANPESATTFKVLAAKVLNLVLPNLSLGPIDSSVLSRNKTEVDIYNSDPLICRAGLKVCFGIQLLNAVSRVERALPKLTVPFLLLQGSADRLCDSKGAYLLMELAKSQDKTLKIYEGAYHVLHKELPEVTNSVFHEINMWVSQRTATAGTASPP
Protocol: Each study was performed in duplicate and the results averaged.
The final concentration in each well was 10 μl of sample, 5.6 μM MAGL (Cayman Catalog #10007812) and 23.6 μM 2-Arachidonoyl Glycerol (Cayman catalog #62160).

HDAC 4 = HDAC 4 (Homo sapiens, UniProt P56524); experiment: HDAC 4 fluorogenic assay kit
Sequence of HDAC 4 (P56524 whole entry): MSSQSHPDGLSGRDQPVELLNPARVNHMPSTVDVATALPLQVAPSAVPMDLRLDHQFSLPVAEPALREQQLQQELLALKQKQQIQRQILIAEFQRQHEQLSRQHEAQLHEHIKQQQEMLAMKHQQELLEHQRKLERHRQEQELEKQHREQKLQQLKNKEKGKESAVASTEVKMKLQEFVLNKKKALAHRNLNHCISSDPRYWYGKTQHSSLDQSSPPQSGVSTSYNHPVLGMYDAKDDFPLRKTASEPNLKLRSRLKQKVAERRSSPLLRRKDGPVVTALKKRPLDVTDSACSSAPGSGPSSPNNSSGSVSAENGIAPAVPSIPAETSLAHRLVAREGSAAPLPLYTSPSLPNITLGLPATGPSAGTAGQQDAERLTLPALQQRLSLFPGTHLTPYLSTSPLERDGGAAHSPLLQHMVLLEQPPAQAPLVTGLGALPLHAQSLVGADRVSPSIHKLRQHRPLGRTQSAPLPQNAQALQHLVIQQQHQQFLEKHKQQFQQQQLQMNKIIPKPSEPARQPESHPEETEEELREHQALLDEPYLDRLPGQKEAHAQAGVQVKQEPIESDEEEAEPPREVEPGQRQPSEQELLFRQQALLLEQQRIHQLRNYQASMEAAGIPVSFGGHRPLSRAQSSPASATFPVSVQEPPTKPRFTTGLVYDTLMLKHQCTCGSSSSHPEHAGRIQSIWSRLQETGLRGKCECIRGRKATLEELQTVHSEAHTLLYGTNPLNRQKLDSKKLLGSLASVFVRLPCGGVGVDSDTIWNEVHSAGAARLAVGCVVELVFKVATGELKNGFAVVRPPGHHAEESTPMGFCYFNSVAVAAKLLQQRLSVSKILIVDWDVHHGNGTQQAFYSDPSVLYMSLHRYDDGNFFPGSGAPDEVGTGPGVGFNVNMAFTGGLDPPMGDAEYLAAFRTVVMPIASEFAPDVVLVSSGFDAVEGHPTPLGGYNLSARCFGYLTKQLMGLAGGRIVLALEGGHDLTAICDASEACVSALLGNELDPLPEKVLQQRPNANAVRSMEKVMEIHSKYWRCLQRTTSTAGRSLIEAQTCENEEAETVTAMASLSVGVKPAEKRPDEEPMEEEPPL
Protocol: (§3) Test materials were stored at room temperature and stock solutions were prepared at 20 mg/ml in DMSO. Further dilutions were made in sterile distilled water immediately before being added to the reaction mixture containing a substrate, and the reaction was triggered by the addition of purified HDAC enzymes, Double distilled water was the negative control and trichostatin (1.5 ug/ml) was used as a positive control for validation of each study. The test procedure was as directed in the assay kits. The products of the reactions were measured by fluorometry at ex/em 350/450 nm using multi-well plate fluorometer Cytofluor 4000 (Applied Biosystem, Foster City, CA) or using SpectraMax i3× Multi-Mode Detection Platform from Molecular Devices (Sunnyvale, CA).
(§4) Statistical significance was assessed with a two-tail Student test. Deviations of ≤20% as compared to water control with p values below 0.05 were considered statistically significant.

HDAC1 = HDAC1 (Homo sapiens, UniProt Q13547); experiment: HDAC 1 fluorogenic assay kit; conditions: 200 ug/ml
Sequence of HDAC1 (Q13547 whole entry): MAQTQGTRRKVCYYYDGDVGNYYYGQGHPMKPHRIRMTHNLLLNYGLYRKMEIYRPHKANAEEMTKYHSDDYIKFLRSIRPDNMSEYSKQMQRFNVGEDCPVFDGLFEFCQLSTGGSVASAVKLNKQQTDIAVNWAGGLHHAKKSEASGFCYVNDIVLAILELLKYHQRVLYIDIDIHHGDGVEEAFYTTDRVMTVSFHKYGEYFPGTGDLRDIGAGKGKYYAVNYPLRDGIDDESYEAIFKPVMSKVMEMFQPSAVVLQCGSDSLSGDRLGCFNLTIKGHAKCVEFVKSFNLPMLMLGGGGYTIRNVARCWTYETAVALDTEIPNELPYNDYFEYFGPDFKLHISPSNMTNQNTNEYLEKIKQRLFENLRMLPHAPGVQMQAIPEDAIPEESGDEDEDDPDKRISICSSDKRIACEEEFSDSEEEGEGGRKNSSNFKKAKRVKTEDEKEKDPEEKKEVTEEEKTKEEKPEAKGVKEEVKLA
Protocol: as §3, §4

FABP-5 = molecular target: T2, FABP-5 (Homo sapiens, UniProt Q01469); experiment: FABP-5 ELISA inhibitory assay; format: biochemical
T2 construct: purchased Raybiotech 268-10276-1
T2 sequence (Q01469 whole entry): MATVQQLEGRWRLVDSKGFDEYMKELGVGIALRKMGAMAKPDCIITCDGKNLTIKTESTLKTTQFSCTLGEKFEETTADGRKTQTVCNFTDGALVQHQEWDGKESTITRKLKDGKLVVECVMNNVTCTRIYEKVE

FABP-3 = molecular target: T3, FABP-3 (Homo sapiens, UniProt P05413); experiment: FABP-3 ELISA inhibitory assay; format: biochemical
T3 construct: purchased Neovateinbio PT-452
T3 sequence (P05413 whole entry): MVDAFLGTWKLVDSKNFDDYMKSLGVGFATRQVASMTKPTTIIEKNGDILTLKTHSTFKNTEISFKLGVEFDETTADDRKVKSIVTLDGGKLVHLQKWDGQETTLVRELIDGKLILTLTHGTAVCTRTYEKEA

HDAC7 = molecular target: T4, HDAC7 (Homo sapiens, UniProt Q8WUI4)
T4 sequence (Q8WUI4 1-952): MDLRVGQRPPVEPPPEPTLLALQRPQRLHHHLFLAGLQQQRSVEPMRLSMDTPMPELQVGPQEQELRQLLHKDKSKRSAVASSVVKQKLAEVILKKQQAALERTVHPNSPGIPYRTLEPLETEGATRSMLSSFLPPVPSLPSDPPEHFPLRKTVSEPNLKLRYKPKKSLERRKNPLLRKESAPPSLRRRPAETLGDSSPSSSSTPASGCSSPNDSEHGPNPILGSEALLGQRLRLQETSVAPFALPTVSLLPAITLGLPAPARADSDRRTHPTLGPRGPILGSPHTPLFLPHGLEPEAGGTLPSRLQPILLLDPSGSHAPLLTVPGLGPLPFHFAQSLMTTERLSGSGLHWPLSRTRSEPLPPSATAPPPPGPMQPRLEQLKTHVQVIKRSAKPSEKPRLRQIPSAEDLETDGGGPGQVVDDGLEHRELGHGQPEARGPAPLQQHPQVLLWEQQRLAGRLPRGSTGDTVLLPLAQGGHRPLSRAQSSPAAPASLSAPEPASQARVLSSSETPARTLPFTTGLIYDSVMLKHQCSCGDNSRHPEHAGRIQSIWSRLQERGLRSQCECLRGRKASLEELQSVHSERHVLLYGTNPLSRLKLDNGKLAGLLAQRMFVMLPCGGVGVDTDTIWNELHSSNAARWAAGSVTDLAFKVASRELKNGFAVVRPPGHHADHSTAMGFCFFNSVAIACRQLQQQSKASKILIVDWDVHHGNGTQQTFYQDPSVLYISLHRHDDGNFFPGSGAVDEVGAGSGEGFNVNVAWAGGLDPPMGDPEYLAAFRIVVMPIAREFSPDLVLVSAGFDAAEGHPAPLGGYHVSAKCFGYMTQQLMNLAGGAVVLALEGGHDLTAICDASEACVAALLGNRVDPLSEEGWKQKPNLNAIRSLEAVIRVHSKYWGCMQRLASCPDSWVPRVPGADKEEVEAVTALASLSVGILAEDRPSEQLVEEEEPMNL
Protocol: as §3, §4

HDAC 3 = HDAC 3 (Homo sapiens, UniProt O15379)
Sequence of HDAC 3 (O15379 whole entry): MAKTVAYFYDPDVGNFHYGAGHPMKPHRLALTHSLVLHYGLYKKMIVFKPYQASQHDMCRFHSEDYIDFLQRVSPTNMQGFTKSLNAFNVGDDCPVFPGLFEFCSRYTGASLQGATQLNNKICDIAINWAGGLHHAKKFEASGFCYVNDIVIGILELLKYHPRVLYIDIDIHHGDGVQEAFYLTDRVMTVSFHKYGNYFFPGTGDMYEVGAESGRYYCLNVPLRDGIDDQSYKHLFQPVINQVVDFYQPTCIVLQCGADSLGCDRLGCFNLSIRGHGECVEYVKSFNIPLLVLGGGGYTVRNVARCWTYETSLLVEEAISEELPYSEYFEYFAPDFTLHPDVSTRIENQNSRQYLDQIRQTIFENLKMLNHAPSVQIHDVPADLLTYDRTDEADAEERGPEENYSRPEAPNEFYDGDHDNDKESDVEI
Sequence of HDAC 3 (Q9Y618 395-489 partner limits assumed): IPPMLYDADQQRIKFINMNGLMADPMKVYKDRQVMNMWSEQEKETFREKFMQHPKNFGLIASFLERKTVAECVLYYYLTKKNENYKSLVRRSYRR
Protocol: as §3, §4

FAAH = molecular target: T5, FAAH (Homo sapiens, UniProt O00519); experiment: FAAH fluorescence-based inhibitory assay; format: biochemical
T5 sequence (O00519 1-579): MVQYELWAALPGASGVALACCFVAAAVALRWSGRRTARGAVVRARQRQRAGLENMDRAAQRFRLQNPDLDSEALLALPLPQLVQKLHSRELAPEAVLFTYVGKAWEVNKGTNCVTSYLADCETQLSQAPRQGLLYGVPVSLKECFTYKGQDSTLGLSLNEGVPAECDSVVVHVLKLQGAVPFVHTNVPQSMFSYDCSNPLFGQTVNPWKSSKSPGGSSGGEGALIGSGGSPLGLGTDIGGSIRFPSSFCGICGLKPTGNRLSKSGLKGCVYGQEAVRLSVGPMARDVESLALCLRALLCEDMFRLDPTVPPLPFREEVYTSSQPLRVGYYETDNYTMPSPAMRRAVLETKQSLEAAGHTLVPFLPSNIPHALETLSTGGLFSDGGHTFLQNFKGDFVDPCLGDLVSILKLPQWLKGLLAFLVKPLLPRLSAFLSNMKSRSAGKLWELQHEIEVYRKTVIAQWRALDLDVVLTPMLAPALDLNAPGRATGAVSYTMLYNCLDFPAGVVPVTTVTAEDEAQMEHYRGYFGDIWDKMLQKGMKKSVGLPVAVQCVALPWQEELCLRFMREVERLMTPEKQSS

HDAC10 = molecular target: T6, HDAC10 (Homo sapiens, UniProt Q969S8)
T6 sequence (Q969S8 1-669): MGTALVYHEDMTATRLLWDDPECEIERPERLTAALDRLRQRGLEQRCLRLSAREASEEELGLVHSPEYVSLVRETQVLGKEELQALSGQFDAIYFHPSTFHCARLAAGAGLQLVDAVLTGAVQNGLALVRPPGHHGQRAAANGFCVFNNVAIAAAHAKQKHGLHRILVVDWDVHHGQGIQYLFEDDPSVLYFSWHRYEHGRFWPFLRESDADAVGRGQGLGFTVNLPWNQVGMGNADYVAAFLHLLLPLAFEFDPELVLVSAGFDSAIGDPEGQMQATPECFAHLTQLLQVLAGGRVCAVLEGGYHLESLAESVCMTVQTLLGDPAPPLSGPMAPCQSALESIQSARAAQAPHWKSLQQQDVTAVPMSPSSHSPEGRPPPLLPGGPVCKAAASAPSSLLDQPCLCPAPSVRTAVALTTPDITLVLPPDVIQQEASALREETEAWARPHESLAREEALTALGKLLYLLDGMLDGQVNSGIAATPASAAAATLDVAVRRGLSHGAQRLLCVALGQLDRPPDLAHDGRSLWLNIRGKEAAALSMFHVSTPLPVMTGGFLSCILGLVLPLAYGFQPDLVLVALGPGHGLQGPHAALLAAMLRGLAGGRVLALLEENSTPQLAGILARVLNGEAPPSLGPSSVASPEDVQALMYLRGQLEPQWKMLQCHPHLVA
Protocol: as §3, §4

HDAC 11 = molecular target: T7, HDAC 11 (Homo sapiens, UniProt Q96DB2); experiment: HDAC 11 fluorogenic assay kit; format: biochemical
T7 construct: purchased BPS Biosciences 50687
T7 sequence (Q96DB2 1-347): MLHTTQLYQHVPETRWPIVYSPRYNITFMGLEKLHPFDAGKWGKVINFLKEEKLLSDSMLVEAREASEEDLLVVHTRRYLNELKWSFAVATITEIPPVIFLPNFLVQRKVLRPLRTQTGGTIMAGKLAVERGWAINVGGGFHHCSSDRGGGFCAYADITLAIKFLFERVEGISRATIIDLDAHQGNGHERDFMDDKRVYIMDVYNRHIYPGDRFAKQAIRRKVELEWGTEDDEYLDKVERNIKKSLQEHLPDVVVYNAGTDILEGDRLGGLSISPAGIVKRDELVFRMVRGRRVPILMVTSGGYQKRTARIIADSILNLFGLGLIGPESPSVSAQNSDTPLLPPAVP
Protocol: as §3, §4

Type IV Collagen = Type IV Collagen Assay (ELISA, fibroblast culture medium); format: cell-based, human; conditions: 10 μg/ml, 48 hours; untreated 7.76 ± 0.92
Protocol: (§1) In the study, human neonatal fibroblasts were seeded into the individual wells of a 48-well plate in 0.25 ml of Fibroblasts Growth Media (FGM) and incubated overnight at 37±2° C. and a 5±1% CO2 atmosphere. On the following day the media was removed via aspiration to eliminate non-adherent cells and replaced with 0.5 ml of fresh FGM. The cells were grown until confluent, with a media change every 48 to 72 hours. Upon reaching confluency the cells were treated for 24 hours with Dulbecco's Modified Eagle's medium (DMED) supplemented with 1.5% Fetal Bovine Serum (FBS) to wash out any effects from the growth factors included in the normal culture media. After this 24-hour wash out period the cells were treated with the test materials at the specified concentrations dissolved in FGM with 1.5% FBS. Sodium ascorbate (10 ug/ml) was used as a positive control. Untreated cells (negative controls) only received DMEM with […], The cells were incubated for 48 hours and at the end of the incubation period, cell culture medium was collected and either stored frozen (−75 C) or assayed immediately. Materials were tested in triplicate.
A series of type IV collagen peptide standards was prepared ranging from 0 ng/ml to 640 ng/ml. 100 μl of each standard or of each of the collected tissue culture media were added to the wells of type IV collagen ELISA plates. The plates were then incubated at 37° C. for 1 hour. After incubation, the ELISA plates were then washed twice with wash buffer, followed by the addition of 100 μl of detection antibody solution. The ELISA plates were then incubated for 1 hour at 37° C. Following incubation, the ELISA plates were washed with wash solution followed by the addition of 100 μl HEP conjugate solution and incubated at 37° C. for 30 minutes. Following the latter incubation, the ELISA plates were again washed and 100 μl of the substrate solution was added to each well and the well plates incubated for 10-30 minutes at room temperature to allow the color generation reaction to occur. At the end of the color generation reaction 100 μl of stop solution (1 N sulfuric acid) was added to each well and the plates read at 460 nm using a plate reader.
(§2) To quantify the amount of each substance present, a standard curve was generated using known concentrations of each substance. A regression analysis was performed to establish the line that best fit those data points. Absorbance values for the test materials and untreated samples were used to estimate the amount of each substance present in each sample. Treatment means were compared using ANOVA, with an […] per treatment. Statistical significance was set at p≤0.05.

Type I Collagen = Type I Collagen Assay (ELISA, fibroblast culture medium); format: cell-based, human; conditions: 10 μg/ml, 48 hours; untreated 1255 ± 83
Protocol: as §1
A series of type I collagen peptide standards was prepared ranging from 0 ng/ml to 640 ng/ml. An ELISA microplate was prepared by removing any unneeded strips from the plate frame followed by the addition of 100 μl of peroxidase labelled anti-procollagen type I-C peptide antibody to each well used in the assay. A 20 μl sample of each of the collected tissue culture media or a standard was then added to appropriate wells and the microplate covered and allowed to incubate for 3±0.25 hours at 37 C. Following incubation, the wells were aspirated and washed three times with 400 μl of wash buffer. After the last wash was remove 100 μl of peroxidase substrate solution (hydrogen peroxide+tetramethylbenzidine as a chromogen) was added to each well and the plate incubated for 15±4 minutes at room temperature. Following this incubation, 100 μl of stop solution (1 N sulfuric acid) was added to each well and the plate read using a microplate reader at 450 nm.
as §2

Telomerase = Telomerase Activity Quantification qPCR Assay in human dermal fibroblasts; format: cell-based; conditions: 300 nM, three days
Protocol: Normal neonatal human dermal fibroblasts (HDF cat, #2310; ScienCell, Oceanside, CA) were grown to confluence in the 6 well plate format and incubated with the test substances identified in Table 3 for three days. Following incubation, the cells were lysed and telomerase activity was determined with Telomerase Activity Quantification qPCR Assay Kit from ScienCell (cat. #8928). Forget-Me-Not™ EvaGreen® qPCR Master Mix (Low ROX) (Biotium, Fremont, CA) was used for real-time quantitative PCR on C1000 Touch System with CFX384™ optical module Detection. For quantifying the level of activity, the Comparative Cq method was used, following the equation: […]
where TPS is telomere primer set, which recognizes and amplifies newly synthesized telomere sequences and Cq(TPS) is the Quantification Cycle Value obtained from the qPCR software. The relative telomerase activity difference between the experimental condition and control is expressed as 2^−ΔCq Telomerase activity was considered different if the level of expression was reasonably high (Cq≤33 cycles to detect), the difference vs. control was >2 fold and the p value, assessed with two-tailed Student test, was <0.05.

Structure (SMILES): C=C(C)[C@@H]1CCC(C)=C[C@H]1c1c(O)cc(CCCCC)cc1O [CBD, Cannabidiol, reference compound]
- MAGL IC50 (MAGL): 4,130^2 ^ μg/ml

Structure (SMILES): CCCC(=O)[O-].CCCC(=O)[O-].[Ca+2] [Ca n-butyrate, reference compound]
- HDAC 4 activity, % of water-treated controls (HDAC 4; 25 ug/ml): 104%
- HDAC 4 activity, % of water-treated controls (HDAC 4; 50 ug/ml): 102%
- HDAC 4 activity, % of water-treated controls (HDAC 4; 100 ug/ml): 109%

Structure (SMILES): CCCC(=O)NCCCC[C@H](NC(=O)CCC)C(=O)[O-].CCCC(=O)NCCCC[C@H](NC(=O)CCC)C(=O)[O-].[Mg+2] [Mg di-(di-n-butyryl lysinate), magnesium di-(di-n-butyryl lysinate)]
- HDAC 1 activity, % of water-treated controls (HDAC1): 74%
- MAGL IC50 (MAGL): 101 µg/mL
- FABP-5 IC50 (FABP-5): 349.1 µg/mL
- FABP-3 IC50 (FABP-3): 282.5 µg/mL
- HDAC 7 activity, % of water-treated controls (HDAC7; 100 ug/ml): 100%
- HDAC 7 activity, % of water-treated controls (HDAC7; 200 ug/ml): 100%
- HDAC 3 activity, % of water-treated controls (HDAC 3; 100 ug/ml): 114%
- HDAC 3 activity, % of water-treated controls (HDAC 3; 200 ug/ml): 117%
- FAAH IC50 (FAAH): 368.5 µg/mL
- HDAC 10 activity, % of water-treated controls (HDAC10; 100 ug/ml): 98%
- HDAC 10 activity, % of water-treated controls (HDAC10; 200 ug/ml): 102%
- HDAC 11 activity, % of water-treated controls (HDAC 11; 100 ug/ml): 91%
- HDAC 11 activity, % of water-treated controls (HDAC 11; 200 ug/ml): 91%

Structure (SMILES): O=C1O[C@H]([C@@H](O)CO)C([O-])=C1O.[Na+] [Na ascorbate, Sodium ascorbate]
- Type IV Collagen C-Peptide (Type IV Collagen): 67.70 ± 5.03 ng/mL
- Type I Collagen C-Peptide (Type I Collagen): 4018 ± 196 ng/mL

Structure (SMILES): CC(/C=C/C(=O)NO)=C\[C@@H](C)C(=O)c1ccc(N(C)C)cc1 [Trichostatin-A]
- Average Cq(TPS) (Telomerase): 32.3
- Telomerase Activity (FC vs. water) (Telomerase): 2.8 FC
- ΔCq sample-water (Telomerase): 1.5
